Assay results from US12485117B2, “Compositions and methods for activating signaling through the CB1 cannabinoid receptor for treating and preventing diseases and disorders characterized by abnormal cellular accumulation of sphingolipids such as sphingomyelin” (Wylder Nation Foundation, priority 2018, dated 2025).

Legend:
Type in all cases: cell-based, mouse
[1] = system: cultured primary hippocampal neurons from ASMko mice; assay: Sphingomyelin levels by enzymatic assay in cultured primary hippocampal neurons from ASMko mice
Description: (§1) FIGS. 5A-5D show sphingomyelin and endocannabinoid levels in cultured primary hippocampal neurons and hippocampal tissue, respectively, from ASMko and wildtype mice.
Statistical significance Student's t-test, *P<0.05, **P<0.005, n=3 independent cultures.
Statistical significance Student's t-test, **P<0.005, n=3 independent cultures.
Anandamide (AEA) is the major endogenous CB1 ligand. We therefore tested whether increased levels of anandamide affected sphingomyelin levels in cultured primary hippocampal neurons from ASMko mice. Anandamide was increased in two ways: • 1. By incubating the neuronal cultures with exogenous anandamide; and • 2. By incubating the neuronal cultures with PF-04457845, which is an inhibitor of the anandamide hydrolytic enzyme FAAH. Inhibition of FAAH causes accumulation of anandamide by inhibiting FAAH-mediated hydrolyzation of anandamide.
The following experiments were performed in three independent cultures of hippocampal neurons derived from ASMko mice. Treatments were done at 11-13 days in vitro when these cells are considered mature and functional.
To set the optimal conditions for such hydrolysis in terms of concentration and time of incubation, anandamide was added to the culture medium of mature ASMko hippocampal neurons at 0, 5, 25, 50 and 100 μM for 30 minutes or 1 hour. […] The optimal conditions for SM degradation were in a range of concentration of 25-50 μM for 1 hour. […] We therefore decided to use 25 μM anandamide for 1-hour incubation time in our next experiments.
Similar to the anandamide dose/time response experiment above, we performed another dose response experiment using URB597 (URB), an inhibitor of the anandamide-hydrolyzing enzyme FAAH, to be used as reference for the other FAAH inhibitors. The experiments were done in the presence or absence of exogenous anandamide. URB was added to the culture medium of ASMko mature neurons at 0, 5, 25 and 50 μM for 1 hour with or without □□ μM anandamide.
We next compared URB efficacy to reduce SM levels with that of other FAAH inhibitors PF-04457845 (PF) and JNJ-1661010 (JNJ).

[2] = system: wildtype cultured neurons; assay: Sphingomyelin levels in wildtype cultured neurons; details: wildtype (FIG. 5D)
Description: as §1
It has been shown that mGluR activation promotes 2-AG synthesis and CB1 stimulation (Maccarrone et al., Nat Neurosci 2008). We therefore sought to determine whether activation of mGluR5 with the allosteric activator CDPPB might induce sphingomyelin breakdown in ASMko neurons. […] Thus, the effect of decreased CB1 expression might be further exacerbated by decrease in endogenous endocannabinoid signaling, at least via 2-AG.

[3] = system: permeabilized ASMko neurons; assay: Lysenin staining of SM in intracellular compartments of permeabilized ASMko neurons; details: 1 hour at 50 μM (FIG. 9)
Method: Statistical significance Student's t-test, *P<0.05, n=3 independent cultures.
To determine whether SM hydrolysis induced by FAAH inhibitors was taking place not only at the cell surface, but also in intracellular compartments, we performed staining with lysenin, a worm toxin that specifically binds to SM, in permeabilized ASMko neurons non-treated or treated with anandamide, URB, PF-04457845 or JNJ for 1 hour at 50 μM.

ASMko cultured neurons [4] = assay: MAP2 immunofluorescence of dendrites in ASMko cultured neurons; details: 50 μM for 1 hour
ASMko cultured neurons [5] = assay: TUNEL assay of neuronal death in ASMko cultured neurons; details: 50 μM for 1 hour
Method: FIG. 10B is a graph showing mean±SEM percentage of apoptotic cells, measured by TUNEL assay, with respect to the positive control in which the cells were treated with H202.
The percentage of dying neurons showing DNA fragmentation was 5-8% in the treated ASMko cultures similar to the non-treated ones.

N#Cc1cccc(C(=O)Nc2cc(-c3ccccc3)nn2-c2ccccc2)c1 [CDPPB, 3-Cyano-N-(1,3-diphenyl-1H-pyrazol-5-yl)benzamide]
sphingomyelin levels ([1]; 15 μM, ASMko cultured neurons (FIG. 5D)): significant decreases in sphingomyelin levels | sphingomyelin levels [2]: did not affect sphingomyelin levels

Cl.Cl.O=C(/C=C/c1ccc(/C=C/C(=O)Nc2ccc(C3=NCCN3)cc2)cc1)Nc1ccc(C2=NCCN2)cc1 [GW4869]
effect of co-incubation with the neutral sphingomyelinase inhibitor on the sphingomyelin reduction by anandamide or PF-04457845 ([1]; ASMko neurons, 1 hour (FIG. 5A)): prevented

O=C(Nc1ccccc1)N1CCN(c2nc(-c3ccccc3)ns2)CC1 [JNJ-1661010]
SM hydrolysis ([1]; 50 μM and 1 hour (FIG. 8)): promoted SM hydrolysis | SM levels in intracellular compartments (lysenin staining) [3]: variable tendency to SM reduction that was not statistically significant | morphology, length, appearance of dendrites (MAP2) (ASMko cultured neurons [4]): did not alter the morphology, length or homogeneous appearance of dendrites | neuronal death as assessed by TUNEL (ASMko cultured neurons [5]): did not induce neuronal death

NC(=O)c1cccc(-c2cccc(OC(=O)NC3CCCCC3)c2)c1 [URB597]
SM levels, dose response ([1]; 0, 5, 25 and 50 μM for 1 hour, without exogenous anandamide (FIG. 7)): dose dependent reduction of SM levels | SM hydrolysis ([1]; 50 μM and 1 hour (FIG. 8)): promoted SM hydrolysis | efficacy to reduce SM levels compared among FAAH inhibitors ([1]; 50 μM and 1 hour (FIG. 8)): most reliable and efficient | SM levels in intracellular compartments (lysenin staining) [3]: significantly reduced SM levels | morphology, length, appearance of dendrites (MAP2) (ASMko cultured neurons [4]): did not alter the morphology, length or homogeneous appearance of dendrites | neuronal death as assessed by TUNEL (ASMko cultured neurons [5]): did not induce neuronal death

CCCCC/C=C\C/C=C\C/C=C\C/C=C\CCCC(=O)NCCO [anandamide]
SM hydrolysis, dose and time response ([1]; 0, 5, 25, 50 and 100 μM for 30 minutes or 1 hour (FIG. 6)): induced SM hydrolysis in a dose and time dependent manner | SM reduction at very high concentration ([1]; 100 μM): SM reduction was prevented | optimal concentration for SM degradation ([1]; 1 hour): 25 to 50 µM | sphingomyelin levels ([1]; ASMko neurons, 1 hour incubation (FIG. 5A)): reduced sphingomyelin levels | effect of addition of exogenous anandamide on SM hydrolysis by FAAH inhibitors ([1]; FAAH inhibitors at 50 μM, 1 hour): did not further enhance SM hydrolysis | SM reduction with URB and anandamide versus URB alone ([1]; URB concentrations other than the lowest, 1 hour): SM reduction was similar | effect of anandamide addition on SM reduction by URB ([1]; lowest URB concentration, 1 hour): synergized the action of URB | SM levels in intracellular compartments (lysenin staining) [3]: variable tendency to SM reduction that was not statistically significant | morphology, length, appearance of dendrites (MAP2) (ASMko cultured neurons [4]): did not alter the morphology, length or homogeneous appearance of dendrites | neuronal death as assessed by TUNEL (ASMko cultured neurons [5]): did not induce neuronal death
